From patent US20250296953A1, “3,4-THIAZOLO-STEROIDS AND METHODS OF MAKING AND USING THE SAME” (Arkansas State University - Jonesboro, priority 2018, published 2025)

How the values were obtained:
Experiment in all cases: Melanoma cytotoxicity assay (resazurin)
Format in all cases: cell-based
SK-MEL-25 = settings: for IC50: Homo sapiens, SK-MEL-25 melanoma cells (head prints SK-25), read-out: SK-25 IC50
Method: (§1) Cytotoxicity Assay: Melanoma cells (˜4000 cells in each well) were incubated in a 96 well plates at 37° C. in 5% CO2 for 24 hours. Compounds were added in triplicates and the plate was further incubated for 24 hours. DMSO and dacarbazine were added as technical and positive controls respectively. Next day resazurin was added and the plate was further incubated for 6 hours followed by reading the plate at 544 nm (excitation) and 590 nm (emission) using BMG Labtech Fluostar Optima plate reader. IC50 values were determined by using Graphpad Prism.
(§2) On day 1, the cell line trypsinized and centrifuged to form cell pellet. The pellet was diluted in media, then counted using Countess automated cell counter. Approximately 4000 cells (198 uL) per well plated in […]. A control well of 200 uL growth media was also prepared. Wells closest to plate perimeter were filled with 200 uL PBS to prevent inner well evaporation. The 96 well plates are incubated in 37° C. incubator at 5% CO2 for 24 hours.
(§3) On day 2, compounds were added (in triplicate) along with DMSO/Dacarbazine controls (2 uL) added to bring wells to volume of 200 μL. The 96 well plates are incubated in 37° C. incubator at 5% CO2 for 24 hours.
(§4) On day 3, 40 μL of 0.15 mg/ml reszurin solution added to wells. Samples were placed in a 37° C. incubator at 5% CO2 for 6 hours. Excitation and emission for fluorescence measured at 544 nm and 590 nm using BMG Labtech Fluostar Optima plate reader
(§5) Percent viability determined by taking average of each triplicate well fluorescence and subtracting GM well reading to remove the background signal. This difference is then divided by the average of the negative control (DMSO) wells to determine percent viability.
(§6) IC50s were determined by using cereal dilution of compound to determine viability. Viabilities and concentration of cells are analyzed in Graphpad Prism by creating sigmoidal curve graph, which will determine the IC50 concentration.
(§7) We analyzed the ability of the thiazole-androstane derivatives to inhibit growth in various melanoma cell lines. The growth inhibition against melanoma cell lines of various compound is shown below in Tables 19 and 20. Inhibition results are reported as the IC50 concentration in μM of the indicated compound or as the percent viability […] of the indicated compound. NA=not available.

SK-MEL-5 = test system: SK-MEL-5
Method: as §1, §2, §3, §4, §5, §6, §7

LOX IMVI = settings: for IC50: Homo sapiens
Method: as §1, §2, §3, §4, §5, §6, §7

SK-MEL-28 = test system: SK-MEL-28
Method: as §1, §2, §3, §4, §5, §6, §7

MALME-3M = test system: MALME-3M
Method: as §2, §3, §4, §5, §6, §7

| Structure (SMILES) | SK-MEL-25 (% viability) (SK-MEL-25; human, 24 h) [%] | SK-MEL-5 (% viability) (SK-MEL-5; human, 24 h) [%] | LOX-IMVI (% viability) (LOX IMVI; human, 24 h) [%] | SK-MEL-28 (% viability) (SK-MEL-28; human, 24 h) [%] | MALME-3M (% viability) (MALME-3M; human, 24 h) [%] | IC50 (LOX IMVI; LOX IMVI melanoma cells) [µM] | also measured |
| --- | --- | --- | --- | --- | --- | --- | --- |
| CNc1nc2c(s1)C1=CC[C@H]3[C@@H]4CC[C@H](O)[C@@]4(C)CC[C@@H]3[C@@]1(C)CC2 [IIIa.2, (1S,2R,13R,14S,17S,18S)-2,18-dimethyl-7-(methylamino)-8-thia-6-azapentacyclo[11.7.0.02,10.05,9.014,18]icosa-5(9),6,10-trien-17-ol] | 6.21 | 2.02 | 14 | 1.9 | 59.51 |  |  |
| C[C@]12CC[C@H]3[C@@H](CC=C4c5sc(Nc6ccccc6[N+](=O)[O-])nc5CC[C@@]43C)[C@@H]1CC[C@@H]2O [IIIa.16, (1S,2R,13R,14S,17S,18S)-2,18-dimethyl-7-(2-nitroanilino)-8-thia-6-azapentacyclo[11.7.0.02,10.05,9.014,18]icosa-5(9),6,10-trien-17-ol] | 26.7 | 10.22 | 67 | 8.47 | 102.39 |  |  |
| C[C@]12CC[C@H]3[C@@H](CC=C4c5sc(NCCc6ccccc6)nc5CC[C@@]43C)[C@@H]1CC[C@@H]2O [IIIa.5, (1S,2R,13R,14S,17S,18S)-2,18-dimethyl-7-(2-phenylethylamino)-8-thia-6-azapentacyclo[11.7.0.02,10.05,9.014,18]icosa-5(9),6,10-trien-17-ol] | 9.39 | 3.49 | 10 | 4.28 | 55.63 | 11 |  |
| C[C@]12CC[C@H]3[C@@H](CC=C4c5sc(Nc6cccc(C(=O)O)c6)nc5CC[C@@]43C)[C@@H]1CC[C@@H]2O [IIIa.35, 3-[[(1S,2R,13R,14S,17S,18S)-17-hydroxy-2,18-dimethyl-8-thia-6-azapentacyclo[11.7.0.02,10.05,9.014,18]icosa-5(9),6,10-trien-7-yl]amino]benzoic acid] | 54.19 | 106.21 | 89 | 66.69 | 122.92 |  |  |
| CC(=O)Nc1nc2c(s1)C1=CC[C@H]3[C@@H]4CC[C@H](O)[C@@]4(C)CC[C@@H]3[C@@]1(C)CC2 [IIIa.37, N-[(1S,2R,13R,14S,17S,18S)-17-hydroxy-2,18-dimethyl-8-thia-6-azapentacyclo[11.7.0.02,10.05,9.014,18]icosa-5(9),6,10-trien-7-yl]acetamide] | 39.57 | 48.52 |  | 62.56 | 104.91 |  | IC50 (SK-MEL-25): > 20 µM |
| CCCCNc1nc2c(s1)C1=CC[C@H]3[C@@H]4CC[C@H](O)[C@@]4(C)CC[C@@H]3[C@@]1(C)CC2 [IIIa.4, (1S,2R,13R,14S,17S,18S)-7-(butylamino)-2,18-dimethyl-8-thia-6-azapentacyclo[11.7.0.02,10.05,9.014,18]icosa-5(9),6,10-trien-17-ol] | 2.63 | 2.1 | 2 | 1.69 | 4.96 | 7.67 | IC50 (SK-MEL-25): 16 µM |
| C[C@]12CC[C@H]3[C@@H](CC=C4c5sc(Nc6ccc(C(=O)O)cc6)nc5CC[C@@]43C)[C@@H]1CC[C@@H]2O [IIIa.26, 4-[[(1S,2R,13R,14S,17S,18S)-17-hydroxy-2,18-dimethyl-8-thia-6-azapentacyclo[11.7.0.02,10.05,9.014,18]icosa-5(9),6,10-trien-7-yl]amino]benzoic acid] | 37.03 | 93.06 | 79 | 69.56 | 113.38 |  |  |
| CCNc1nc2c(s1)C1=CC[C@H]3[C@@H]4CC[C@H](O)[C@@]4(C)CC[C@@H]3[C@@]1(C)CC2 [IIIa.3, (1S,2R,13R,14S,17S,18S)-7-(ethylamino)-2,18-dimethyl-8-thia-6-azapentacyclo[11.7.0.02,10.05,9.014,18]icosa-5(9),6,10-trien-17-ol] | 5.06 | 2.46 | 6 | 2.00 | 51.83 | > 20 |  |
| C[C@]12CCc3nc(Cc4ccccc4)sc3C1=CC[C@@H]1[C@@H]2CC[C@]2(C)C(=O)CC[C@@H]12 [II.2] |  |  |  |  |  |  | SK-MEL-25 (% inhibition) (SK-MEL-25; SK-MEL-25 melanoma cells, 24 hours with compound, resazurin, concentration not given): 69%; SK-MEL-5 (% inhibition) (SK-MEL-5; SK-MEL-5 melanoma cells, 24 hours with compound, resazurin, concentration not given): 77%; LOX-IMVI (% inhibition) (LOX IMVI; LOX IMVI melanoma cells, 24 hours with compound, resazurin, concentration not given): 17%; SK-MEL-28 (% inhibition) (SK-MEL-28; SK-MEL-28 melanoma cells, 24 hours with compound, resazurin, concentration not given): 98% |
| C[C@]12CC[C@H]3[C@@H](CC=C4c5sc(Nc6cccc(O)c6)nc5CC[C@@]43C)[C@@H]1CC[C@@H]2O [IIIa.39] |  |  |  |  |  |  | SK-MEL-25 (% viability) (SK-MEL-25; SK-MEL-25 melanoma cells, percent viability vs DMSO control, 24 hours with compound): 6.33%; SK-MEL-5 (% viability) (SK-MEL-5; SK-MEL-5 melanoma cells, percent viability vs DMSO control, 24 hours with compound): 6.75%; LOX-IMVI (% viability) (LOX IMVI; LOX IMVI melanoma cells, percent viability vs DMSO control, 24 hours with compound): 51%; SK-MEL-28 (% viability) (SK-MEL-28; SK-MEL-28 melanoma cells, percent viability vs DMSO control, 24 hours with compound): 3.71%; MALME-3M (% viability) (MALME-3M; MALME-3M melanoma cells, percent viability vs DMSO control, 24 hours with compound): 45.95% |
| C=CCNc1nc2c(s1)C1=CC[C@H]3[C@@H]4CC[C@H](O)[C@@]4(C)CC[C@@H]3[C@@]1(C)CC2 [IIIa.6, (1S,2R,13R,14S,17S,18S)-7-(allylamino)-2,18-dimethyl-8-thia-6-azapentacyclo[11.7.0.02,10.05,9.014,18]icosa-5(9),6,10-trien-17-ol] | 3.79 | 3.52 | 11 | 2.04 | 29.73 | > 20 |  |
